Assays:
[1] = biological target: T1, Recombinant ROCK1 (amino acids 1-477) (Homo sapiens, UniProt Q13464); assay: ROCK inhibition assay, LANCE Ultra TR-FRET (ROCK1); type: biochemical; settings: 1 mM of ATP
T1 construct: Recombinant ROCK1 (amino acids 1-477)
Method: (§1) Kinase IC50 was determined through an in vitro assay based on LANCE Ultra TR-FRET (Time-Resolved Fluorescence Resonance Energy Transfer) homogeneous technologies method 5 (Perkin Elmer). Recombinant ROCK1 (amino acids 1-477) and ROCK2 (amino acids 5-554) proteins were purchased from Carna Biosciences and SignalChem. Compound activities were measured by Envision and IC50s were calculated. The assays were performed in white LUMITRAC™ 200 96 well half-area microplates from Greiner Bio-One. The kinase reaction buffer consisted of 50 mM HEPES pH 7.5, 1 mM EGTA, 10 mM MgCl2, 2 mM DTT and 0.01% 10 Tween-20. Kinases were incubated with 50 nM (ULight-CREBtide) substrate in the presence of 1 mM (ROCK1) or 1 mM (ROCK2) of ATP. The kinase reaction was carried out for 1 hour before addition of a stopping buffer to a final of 10 mM EDTA and 0.6 nM of LANCE Ultra Europium anti-phospho-CREB (Ser133) antibody (PerkinElmer TRF0200) in LANCE detection buffer. All assay incubations were performed at room temperature, and the microplates were sealed with polyester film during that time. The reaction was incubated for 1 hour, and the signal was read in Envision in TR-FRET mode (excitation at 320 nm and emission at 615/665 nm).
(§2) As used herein, a way to describe potency of inhibitory activity (nM) is a value of inhibitory activity at 50% (IC50).

[2] = biological target: T2, Recombinant ROCK2 (amino acids 5-554) (Homo sapiens, UniProt O75116); assay: ROCK inhibition assay, LANCE Ultra TR-FRET (ROCK2); type: biochemical; settings: 1 mM of ATP
T2 construct: ROCK2 (amino acids 5-554)
Method: as §1, §2

T1 sequence (Q13464 1-477): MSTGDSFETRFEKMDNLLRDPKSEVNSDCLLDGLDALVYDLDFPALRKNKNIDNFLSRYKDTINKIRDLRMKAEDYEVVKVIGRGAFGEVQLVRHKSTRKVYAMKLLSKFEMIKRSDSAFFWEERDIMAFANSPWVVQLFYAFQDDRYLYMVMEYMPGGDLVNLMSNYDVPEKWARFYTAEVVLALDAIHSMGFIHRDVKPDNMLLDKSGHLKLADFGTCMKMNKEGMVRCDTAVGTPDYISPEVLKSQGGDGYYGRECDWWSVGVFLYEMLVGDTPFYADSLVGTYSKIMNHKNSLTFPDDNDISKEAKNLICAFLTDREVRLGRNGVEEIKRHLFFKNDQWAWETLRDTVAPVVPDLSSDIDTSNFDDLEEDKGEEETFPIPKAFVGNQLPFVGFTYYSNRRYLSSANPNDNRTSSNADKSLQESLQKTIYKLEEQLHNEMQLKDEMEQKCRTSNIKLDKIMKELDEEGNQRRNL
T2 sequence (O75116 5-554): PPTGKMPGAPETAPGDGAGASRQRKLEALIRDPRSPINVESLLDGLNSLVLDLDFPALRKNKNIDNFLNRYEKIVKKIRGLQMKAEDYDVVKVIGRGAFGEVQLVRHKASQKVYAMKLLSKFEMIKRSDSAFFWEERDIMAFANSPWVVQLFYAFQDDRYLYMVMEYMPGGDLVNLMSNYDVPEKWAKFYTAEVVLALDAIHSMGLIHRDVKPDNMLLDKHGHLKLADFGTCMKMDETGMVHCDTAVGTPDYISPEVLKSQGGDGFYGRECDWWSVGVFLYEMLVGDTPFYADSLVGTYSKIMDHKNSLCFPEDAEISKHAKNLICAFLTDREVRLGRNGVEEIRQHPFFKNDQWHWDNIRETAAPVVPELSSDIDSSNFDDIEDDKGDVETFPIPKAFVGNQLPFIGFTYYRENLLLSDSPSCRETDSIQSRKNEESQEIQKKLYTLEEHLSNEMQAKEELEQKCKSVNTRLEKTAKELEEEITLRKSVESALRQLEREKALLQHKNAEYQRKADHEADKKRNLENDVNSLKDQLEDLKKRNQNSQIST

| Structure (SMILES) | IC50 [1] [nM] | IC50 [2] [nM] |
| --- | --- | --- |
| COc1[nH]ncc1-c1ccc2c(C(=O)C3COc4ccc(Cl)cc4C3)cn(CC3(N)CC3)c2c1 (stereo not shown) [Compound 4-1, [1-[(1-aminocyclopropyl)methyl]-6-(5-methoxy-1H-pyrazol-4-yl)indol-3-yl]-(6-chlorochroman-3-yl)methanone] | < 20 | < 20 |
| NC1(Cn2cc(C(=O)C3COc4ccc(Cl)cc4C3)c3ccc(-c4cn[nH]c4Cl)cc32)CC1 (stereo not shown) [Compound 4-2] | < 20 | < 20 |
| COc1ccc2c(c1)CC(C(=O)c1cn(CC3(N)CC3)c3cc(-c4cn[nH]c4Cl)ccc13)CO2 (stereo not shown) [Compound 4-3] | 21 to 200 | < 20 |
| NC1(Cn2cc(C(=O)C3COc4ccc(F)cc4C3)c3ccc(-c4cn[nH]c4Cl)cc32)CC1 (stereo not shown) [Compound 4-4] | 21 to 200 | < 20 |
| NC1(Cn2cc(C(=O)C3COc4ccc(Cl)cc4C3)c3ccc(-c4cn[nH]c4F)cc32)CC1 (stereo not shown) [Compound 4-5] | < 20 | < 20 |
| COc1ccc2c(c1)CC(C(=O)c1cn(CC3(N)CC3)c3cc(-c4cn[nH]c4F)ccc13)CO2 (stereo not shown) [Compound 4-6] | 21 to 200 | < 20 |
| Cc1n[nH]cc1-c1ccc2c(C(=O)C3COc4ccc(Cl)cc4C3)cn(CCN(C)C)c2c1 (stereo not shown) [Compound 5-1, (6-chlorochroman-3-yl)-[1-[2-(dimethylamino)ethyl]-6-(3-methyl-1H-pyrazol-4-yl)indol-3-yl]methanone] | > 501 | 201 to 500 |
| CN(C)CCn1cc(C(=O)C2COc3ccccc3O2)c2ccc(-c3cn[nH]c3)cc21 (stereo not shown) [Compound 5-2] | > 501 | 201 to 500 |
| COc1ccc2c(c1)C[C@H](C(=O)c1cn(CCN(C)C)c3cc(-c4c[nH]nc4Cl)ccc13)CO2 [Compound 5-4] | > 501 | < 20 |
| COc1ccc2c(c1)C[C@@H](C(=O)c1cn(CCN(C)C)c3cc(-c4c[nH]nc4Cl)ccc13)CO2 [Compound 5-8] | > 501 | < 20 |
| COc1ccc2c(c1)C[C@H](C(=O)c1cn(C[C@H]3CCN3CCF)c3cc(-c4c[nH]nc4Cl)ccc13)CO2 [Compound 5-9] | 201 to 500 | < 20 |
| COc1ccc2c(c1)C[C@H](C(=O)c1cn(C[C@H]3CCN3CC(F)F)c3cc(-c4c[nH]nc4Cl)ccc13)CO2 [Compound 5-10] | 201 to 500 | < 20 |
| COc1ccc2c(c1)C[C@H](C(=O)c1cn(C[C@H]3CCN3CC(F)(F)F)c3cc(-c4c[nH]nc4Cl)ccc13)CO2 [Compound 5-11] | 21 to 200 | 21 to 200 |
| CCN(CCF)CCn1cc(C(=O)[C@@H]2COc3ccc(OC)cc3C2)c2ccc(-c3c[nH]nc3Cl)cc21 [Compound 5-12] | > 501 | 21 to 200 |
| CCN(CCn1cc(C(=O)[C@@H]2COc3ccc(OC)cc3C2)c2ccc(-c3c[nH]nc3Cl)cc21)CC(F)F [Compound 5-13] | 201 to 500 | < 20 |
| CCN(CCn1cc(C(=O)[C@@H]2COc3ccc(OC)cc3C2)c2ccc(-c3c[nH]nc3Cl)cc21)CC(F)(F)F [Compound 5-14] | > 501 | 21 to 200 |
| COc1ccc2c(c1)C[C@H](C(=O)c1cn(CCN(CCF)CCF)c3cc(-c4c[nH]nc4Cl)ccc13)CO2 [Compound 5-15] | > 501 | 21 to 200 |
| CN(C)CCn1cc(C(=O)C2COc3ccc(F)cc3O2)c2ccc(-c3c[nH]nc3Cl)cc21 (stereo not shown) [Compound 5-16] | > 501 | 201 to 500 |
| CN(C)CCn1cc(C(=O)C2COc3ccc(Cl)cc3O2)c2ccc(-c3c[nH]nc3Cl)cc21 (stereo not shown) [Compound 5-17] | > 501 | > 501 |
| CN(C)CCn1cc(C(=O)C2COc3ccccc3O2)c2ccc(-c3c[nH]nc3Cl)cc21 (stereo not shown) [Compound 5-18] | 201 to 500 | 201 to 500 |
| CN(C)CCn1cc(C(=O)C2COc3ccc(F)cc3C2)c2ccc(-c3c[nH]nc3Cl)cc21 (stereo not shown) [Compound 5-19] | > 501 | 21 to 200 |
| CN(C)CCn1cc(C(=O)[C@@H]2COc3ccc(F)cc3C2)c2ccc(-c3c[nH]nc3Cl)cc21 [Compound 5-21] | 201 to 500 | < 20 |
| CN(C)CCn1cc(C(=O)C2COc3ccc(Cl)cc3C2)c2ccc(-c3ccnn3C)cc21 (stereo not shown) [Compound 5-24] | > 501 | > 501 |
| Cc1nocc1-c1ccc2c(C(=O)C3COc4ccc(F)cc4C3)cn(CCN(C)C)c2c1 (stereo not shown) [Compound 5-26] | > 501 | > 501 |
| COc1[nH]ncc1-c1ccc2c(C(=O)C3COc4ccc(Cl)cc4C3)cn(CCN(C)C)c2c1 (stereo not shown) [Compound 5-28] | > 501 | < 20 |
| COc1[nH]ncc1-c1ccc2c(C(=O)[C@@H]3COc4ccc(Cl)cc4C3)cn(CCN(C)C)c2c1 [Compound 5-30] | 201 to 500 | < 20 |

From patent US20240360139A1, “BLOOD BRAIN BARRIER PENETRATING SELECTIVE INHIBITORS OF ROCK2 PROTEIN KINASES AND USES THEREOF” (GENOSCO Inc., priority 2023, published 2024)
